Experimental data taken from patent US20260240880A1, “AGENT FOR AMELIORATING OR TREATING DEMENTIA, PRIMARILY ALZHEIMER'S DEMENTIA” (HOMO C[…] AND DEVELOPMENT INSTITUTE, priority 2023, published 2026).
Entries after “also recorded” stand apart in the source; their conditions may differ.

How the values were obtained:
[1] = Body weight measurement once a week during 24 weeks of daily administration; format: in vivo, mouse; set-up: Weight change / Weight change (average): unit not given here; details: APPosk mice; for Weight loss after 24 weeks of daily administration: i.p. once daily, 0.9 or 1.8 mg/kg; for Weight change: range
Text: (§1) Sixty-eight APPosk (SPF) male mice were produced according to the method described in Tomiyama T., Nagata T., Shimada H., Teraoka R., Fukushima A., Kanemitsu H., Takuma H., Kuwano R., Imagawa M., Ataka S., Wada Y., Yoshioka E., Nishizaki T., Watanabe Y., Mori H. A new amyloid β variant favoring oligomerization in Alzheimer's-type dementia. Ann. Neurol. 63, 377-387 (2008) at BioSafety Research Center Inc. (BSRC), which has a track record in producing model mice, and were raised until 24 weeks of age. These mice were then delivered to New Drug Research Center, Inc. and acclimatized until the preliminary breeding period. Note that quarantine was carried out from the date of arrival, considered as Day 0, up to Day 7. General observations were made daily, and body weights were measured on Day 1 (the day following the arrival), Day 3, and Day 7 after the arrival. Each individual was placed in a polysulfone cage and kept in an animal breeding room under conditions of a temperature of 22° C.±3° C., a humidity of 50%±20%, and a 12-hour light/dark cycle.
(§2) Of the 16 wild-type mice that arrived, 10 with weights close to the average were selected to form the normal group. Sixty-eight APPosk mice were delivered and assigned by stratified continuous randomization to the following groups: Pathological; Pathological+2ccPA (L); Pathological+2ccPA (H); Pathological+2cLPA (L); and Pathological+2cLPA (H). L: Low dose (0.9 mg/kg); H: High dose (1.8 mg/kg)
(§3) The dosing solution was filled into a syringe (disposable syringe) equipped with a 26G needle, and administered intraperitoneally once daily for 168 days (24 weeks). On the day when the Morris water maze test was performed, the dosing solution was administered after the Morris water maze test.
Body weight was measured using an electronic balance once a week. Each time, the measurement was carried out twice at different times.

[2] = In vivo hippocampal microdialysis with LC/MS determination of 2ccPA (blood-brain barrier crossing); set-up: species or system mouse; details: 0.9 mg/kg i.p.; for 2ccPA concentration in microdialysis recovery fluid: hippocampus
Procedure: To confirm that 2ccPA crosses the blood-brain barrier (BBB) and enters the brain, an experiment was conducted at the Kurume Modality Analysis Laboratory of BioSafety Research Center Inc. (BSRC), which has a long track record in microdialysis, and the Institute for Disease Modeling, Kurume University School of Medicine.
2ccPA was administered intraperitoneally to 33-week-old male C57BL/6J-Aged mice (SPF, Jackson Laboratory Japan, Inc.) with a dialysis probe (FX-I-4-02, EICOM) placed in the hippocampus of the mouse brain. After that, the brain microdialysis perfusate was collected at […], 1 hour before administration and every 30 minutes (0.5 to 5.0 hours) after administration, using the in vivo microdialysis method.
The hippocampal guide cannula placement surgery was performed under isoflurane anesthesia, with a guide cannula and a dummy cannula placed at the hippocampal coordinate position (AP=−3.1 mm; ML=+2.7 mm; DV=−3.7 mm). After surgery, Vetorphale was administered subcutaneously for analgesia. Three to five days after the cannula was placed, the cannula was replaced with a dialysis probe under isoflurane inhalation anesthesia, and pre-perfusion (perfusion solution: saline containing 0.15% BSA) was then initiated.
2ccPA administration was performed under isoflurane anesthesia. D-PBS(−) containing 0.1% BSA was added to […], and the mixture was dispersed by ultrasonic treatment, thereby preparing a dosing solution.
The dosing solution was diluted with D-PBS(−) containing 0.1% BSA to a concentration of 0.9 mg/kg/day, and then sonicated individually just immediately administration. The administration route was intraperitoneal administration.
The microdialysis perfusate was collected at 11 time points: 1 hour before administration and 0.5, 1.0, 1.5, 2.0, 2.5, 3.0, 3.5, 4.0, 4.5, and 5.0 hours after administration, and each was collected into ice-cooled siliconized tubes.
Five mice in each test group underwent hippocampal cannula placement surgery, replacement with a dialysis probe, administration of the test substance, and collection of the microdialysis perfusate. The collected solution was added to an ice-cold acid-methanol solution (pH 4), stirred, and then promptly frozen in liquid nitrogen and stored at −80° C.
The concentration of 2ccPA in the perfusate collected by microdialysis from mice administered with 2ccPA was measured using LC/MS. The conditions are as follows: Shimizu Y., Fukasawa K., Yamamoto S., Shibike Y., Tsukahara R., Ishikawa M., Iwasa K., Yoshikawa K., Gotoh M., Murakami-Murofushi K. Evaluation of the pharmacokinetics of 2-carba-cyclic phosphatidic acid by liquid chromatography-triple quadrupole mass spectrometry
The standard solution for the calibration curve was prepared by adding ethanol to the standard substance, 2ccPA, dissolving it, and then mixing it with the blank matrix. The internal standard solution (IStd) was prepared by adding ultrapure water to the internal standard substance (ranitidine hydrochloride), dissolving it, and then diluting it with ultrapure water (10 ng/mL). The measurement specimen (microdialysis perfusate) was prepared by adding an acidic methanol solution (pH 4) in an amount five times the volume of the sample.
The measurement samples (the measurement specimen and the standard solution for the calibration curve) were deproteinized by adding a specimen treatment solution containing the internal standard solution to each sample. After centrifugation, the supernatant was filtered, and the 2ccPA concentration was measured using a Q Exactive Ultimate 3000 system (Thermo Scientific), thereby yielding the following results.

[3] = test system: tau protein and phosphorylated tau protein; experiment: Quantitative determination of tau protein and phosphorylated tau protein (immunostaining of brain sections); format: in vivo, mouse; details: for Suppression of phosphorylation of tau protein: APPosk mice, low dose; for Phosphorylated tau (Ser396) area/Hippocampus area (average) / Phosphorylated tau (Ser404) area/Hippocampus area (average) / Tau protein area/Hippocampus area (average) / Phosphorylated tau (Ser396) area/Hippocampus area / Phosphorylated tau (Ser404) area/Hippocampus area / Tau protein area/Hippocampus area: APPosk-Tg mice, low dose (L) 0.9 mg/kg; for Phosphorylated tau (Ser396) area/Hippocampus area / Phosphorylated tau (Ser404) area/Hippocampus area / Tau protein area/Hippocampus area: range; for Tau protein area/Hippocampus area: five sections
Text: After exsanguination, 6 of the 10 individuals in each group (with numbers ending in 1 to 6) were perfused with phosphate-buffered saline (PBS) and then perfused again with 4% paraformaldehyde (PFA) to fix the brains, after which the brains were removed. The extracted brains were then infiltrated and fixed using the same fixative solution. The remaining four individuals in each group (with numbers ending in 7 to 10) were perfused whole body with PBS, and then their brains were extracted and frozen using liquid nitrogen.
Serial sections (thickness: 40 μm) of fixed mouse […] were prepared using a cryostat. The sections were incubated overnight with primary antibodies and then for 1 hour with secondary antibodies. Stained images were then captured using a confocal microscope (Carl Zeiss) and quantified using NIH ImageJ. The primary antibodies used were non-phosphorylated tau antibody (Invitrogen), phosphorylated tau (Ser396) antibody (Invitrogen), and phosphorylated tau (Ser404) antibody (Invitrogen), and the secondary antibodies used were biotinylated goat anti-mouse IgG antibody (Vector Lab.) and biotinylated goat anti-rabbit IgG antibody (Vector Lab.). Quantitative determination was carried out using five sections each.
Quantitative determination of tau protein and phosphorylated tau protein in the hippocampus of normal, pathological, pathological+2ccPA (low dose), and pathological+2cLPA (low dose) mice

[4] = test system: Alzheimer's dementia model mouse (APPosk); experiment: Morris water maze test (escape latency); format: in vivo; details: APPosk mice; for Memory improvement effect in the Morris water maze test: i.p. once daily for 168 days (24 weeks), tested at 48 weeks of age; for Memory effect in the Morris water maze test at low dose: low dose 0.9 mg/kg i.p. once daily for 24 weeks
Text: as §1, §2, §3
When the mice reached 12 months of age (48 weeks of age), the Morris water maze test was performed.
The water maze (diameter: 90 cm; height: 60 cm; water temperature: approximately 22° C.) was made opaque with a white non-toxic paint (skim milk) and divided into four virtual quadrants (east, west, north, and south). A circular platform having a diameter of 8 cm was submerged approximately 1 cm below the water surface and placed near the center of the north quadrant. Black markers were placed on the walls of the water maze as extramaze cues.
The time it took to reach the platform placed in the water maze (escape latency) was measured over 4 days. Each animal underwent five consecutive trials, with an interval of approximately 20 seconds between the end and start of each trial.
Each trial began with the mouse being placed in any quadrant except the north quadrant, with its face facing the outer edge of the water maze. A webcam (Logicool HD Webcam C615) and SMART v3.0 (Panlab Harvard Apparatus) were used for measurement and analysis. […]

[5] = high dose (H) 1.8 mg/kg i.p. once daily for 24 weeks
[6] = low dose (L) 0.9 mg/kg i.p. once daily for 24 weeks

Compound | Weight loss after 24 weeks of daily administration [1] | Weight change (average) [1, 5] | Weight change (average) [1, 6] | Weight change [1, 5] | Weight change [1, 6] | Suppression of phosphorylation of tau protein [3] | Phosphorylated tau (Ser396) area/Hippocampus area (average) [3] | Phosphorylated tau (Ser404) area/Hippocampus area (average) [3] | Tau protein area/Hippocampus area (average) [3] | Phosphorylated tau (Ser396) area/Hippocampus area [3] | Phosphorylated tau (Ser404) area/Hippocampus area [3] | Tau protein area/Hippocampus area [3] | Memory improvement effect in the Morris water maze test [4] | also measured
CCCCCCCCC=CCCCCCCCC(=O)OCC1COP(=O)(O)C1 (stereo not shown) [2ccPA, oleoyl-2-carba-cPA] | No weight loss was observed | 32.1 | 32.3 | 30.6-32.8 | 31.4-33.6 | significantly suppress the phosphorylation of tau protein | (2.3) % | (0.5) % | (17.4) % | 2.0-4.9% | 0.4-1.7% | 7.7-19.5% | significantly improved memory; also recorded: significantly improve memory decline | 2ccPA concentration in microdialysis recovery fluid ([2]; 0.5 hours after administration): 1.90 ng/mL; 2ccPA concentration in microdialysis recovery fluid ([2]; 1.0 hours after administration): 2.22 ng/mL; 2ccPA concentration in microdialysis recovery fluid ([2]; 1.5 hours after administration): 2.81 ng/mL; 2ccPA concentration in microdialysis recovery fluid ([2]; 2.0 hours after administration): 2.24 ng/mL; 2ccPA concentration in microdialysis recovery fluid ([2]; 2.5 hours after administration): 1.64 ng/mL; 2ccPA concentration in microdialysis recovery fluid ([2]; 3.0 hours after administration): 1.80 ng/mL; 2ccPA concentration in microdialysis recovery fluid ([2]; 3.5 hours after administration): 2.32 ng/mL; 2ccPA concentration in microdialysis recovery fluid ([2]; 4.0 hours after administration): 2.12 ng/mL; 2ccPA concentration in microdialysis recovery fluid ([2]; 4.5 hours after administration): 2.12 ng/mL; 2ccPA concentration in microdialysis recovery fluid ([2]; 5.0 hours after administration): 1.22 ng/mL; Crossing of the blood-brain barrier ([2]; mice, hippocampal microdialysis): passed through the barrier of endothelial cells that line the walls of brain capillaries; 2ccPA concentration in microdialysis recovery fluid ([2]; time 0 (before administration), C57BL/6J-Aged mice): 0 ng/mL; Memory effect in the Morris water maze test at low dose ([4]; 0.9 mg/kg): memory maintenance effect comparable to that of the normal group; also recorded: clear effects
oleoyl-2-carba-LPA [2cLPA] | No weight loss was observed | 30.2 | 32.0 | 29.6-31.9 | 30.8-33.3 | significantly suppress the phosphorylation of tau protein | (2.4) % | (1.2) % | (19.0) % | 0.5-4.7% | 0.9-1.8% | 10.6-36.2% | significantly improved memory; also recorded: significantly improve memory decline | Memory effect in the Morris water maze test at low dose [4]: clear effects
